In PubChem BioAssay (NCI):
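In this assay, cells in 96-well plates receive the compound at five concentrations for 48 hours. Endpoints are linearly interpolated between the surrounding concentrations. TGI: total growth inhibition.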

Columns and labels:
Test in all cases: NCI anticancer screen, dose series, 48 h
KM12 colon = test system: KM12 colon
NCI-H226 lung = test system: NCI-H226 lung
DLD-1 colon = test system: DLD-1 colon
A498 renal = test system: A498 renal
UO-31 renal = test system: UO-31 renal
SK-MEL-2 melanoma = test system: SK-MEL-2 melanoma
RXF 393 renal = test system: RXF 393 renal
CAKI-1 renal = test system: CAKI-1 renal
LOX IMVI melanoma = test system: LOX IMVI melanoma
UACC-62 melanoma = test system: UACC-62 melanoma
OVCAR-8 ovarian = test system: OVCAR-8 ovarian
K-562 leukemia = test system: K-562 leukemia
MOLT-4 leukemia = test system: MOLT-4 leukemia
SF-539 CNS = test system: SF-539 CNS
CCRF-CEM leukemia = test system: CCRF-CEM leukemia
SK-MEL-5 melanoma = test system: SK-MEL-5 melanoma
NCI-H23 lung = test system: NCI-H23 lung
HOP-62 NSCLC = test system: HOP-62 NSCLC
RXF-631 renal = test system: RXF-631 renal
UACC-257 melanoma = test system: UACC-257 melanoma
SK-OV-3 ovarian = test system: SK-OV-3 ovarian
IGROV1 ovarian = test system: IGROV1 ovarian
SW-620 colon = test system: SW-620 colon
786-0 renal = test system: 786-0 renal
SNB-19 CNS = test system: SNB-19 CNS
SK-MEL-28 melanoma = test system: SK-MEL-28 melanoma
NCI-H460 lung = test system: NCI-H460 lung
DMS 273 small cell lung = test system: DMS 273 small cell lung
SN12C renal = test system: SN12C renal
NCI-H522 lung = test system: NCI-H522 lung
EKVX NSCLC = test system: EKVX NSCLC
HCC-2998 colon = test system: HCC-2998 colon
TK-10 renal = test system: TK-10 renal
U251 CNS = test system: U251 CNS
HT29 colon = test system: HT29 colon
COLO 205 colon = test system: COLO 205 colon
SNB-78 CNS = test system: SNB-78 CNS
RPMI-8226 leukemia = test system: RPMI-8226 leukemia
DMS 114 small cell lung = test system: DMS 114 small cell lung
A549 NSCLC = test system: A549 NSCLC
SF-268 CNS = test system: SF-268 CNS
M19-MEL melanoma = test system: M19-MEL melanoma
OVCAR-3 ovarian = test system: OVCAR-3 ovarian
XF 498 CNS = test system: XF 498 CNS
HCT-15 colon = test system: HCT-15 colon
MALME-3M melanoma = test system: MALME-3M melanoma
M14 melanoma = test system: M14 melanoma
SF-295 CNS = test system: SF-295 CNS
LXFL 529 NSCLC = test system: LXFL 529 NSCLC
KM20L2 colon = test system: KM20L2 colon
SNB-75 CNS = test system: SNB-75 CNS
ACHN renal = test system: ACHN renal
OVCAR-4 ovarian = test system: OVCAR-4 ovarian
SR leukemia = test system: SR leukemia
HOP-18 NSCLC = test system: HOP-18 NSCLC
HL-60(TB) leukemia = test system: HL-60(TB) leukemia
HCT-116 colon = test system: HCT-116 colon
OVCAR-5 ovarian = test system: OVCAR-5 ovarian
HOP-92 NSCLC = test system: HOP-92 NSCLC

NC(=O)c1ccc([N+](=O)[O-])cc1
TGI (KM12 colon): > 100 µM | TGI (NCI-H226 lung): > 100 µM | TGI (DLD-1 colon): > 100 µM | TGI (A498 renal): > 100 µM | TGI (UO-31 renal): > 100 µM | TGI (SK-MEL-2 melanoma): > 100 µM | TGI (RXF 393 renal): > 100 µM | TGI (CAKI-1 renal): > 100 µM | TGI (LOX IMVI melanoma): > 100 µM | TGI (UACC-62 melanoma): > 100 µM | TGI (OVCAR-8 ovarian): > 100 µM | TGI (K-562 leukemia): > 100 µM | TGI (MOLT-4 leukemia): > 100 µM | TGI (SF-539 CNS): > 100 µM | TGI (CCRF-CEM leukemia): > 100 µM | TGI (SK-MEL-5 melanoma): > 100 µM | TGI (NCI-H23 lung): > 100 µM | TGI (HOP-62 NSCLC): > 100 µM | TGI (RXF-631 renal): > 100 µM | TGI (UACC-257 melanoma): > 100 µM | TGI (SK-OV-3 ovarian): > 100 µM | TGI (IGROV1 ovarian): > 100 µM | TGI (SW-620 colon): > 100 µM | TGI (786-0 renal): > 100 µM | TGI (SNB-19 CNS): > 100 µM | TGI (SK-MEL-28 melanoma): > 100 µM | TGI (NCI-H460 lung): > 100 µM | TGI (DMS 273 small cell lung): > 100 µM | TGI (SN12C renal): > 100 µM | TGI (NCI-H522 lung): > 100 µM | TGI (EKVX NSCLC): > 100 µM | TGI (HCC-2998 colon): > 100 µM | TGI (TK-10 renal): > 100 µM | TGI (U251 CNS): > 100 µM | TGI (HT29 colon): > 100 µM | TGI (COLO 205 colon): > 100 µM | TGI (SNB-78 CNS): > 100 µM | TGI (RPMI-8226 leukemia): > 100 µM | TGI (DMS 114 small cell lung): > 100 µM | TGI (A549 NSCLC): > 100 µM | TGI (SF-268 CNS): > 100 µM | TGI (M19-MEL melanoma): > 100 µM | TGI (OVCAR-3 ovarian): > 100 µM | TGI (XF 498 CNS): > 100 µM | TGI (HCT-15 colon): > 100 µM | TGI (MALME-3M melanoma): > 100 µM | TGI (M14 melanoma): > 100 µM | TGI (SF-295 CNS): > 100 µM | TGI (LXFL 529 NSCLC): > 100 µM | TGI (KM20L2 colon): > 100 µM | TGI (SNB-75 CNS): > 100 µM

ClCC[N-]CC[N-]CCCl.ClCC[N-]CC[N-]CCCl.[O-][Cl+3]([O-])([O-])O.[Zn+2]
TGI (KM12 colon): > 100 µM | TGI (NCI-H226 lung): > 100 µM | TGI (ACHN renal): 49.6 µM | TGI (DLD-1 colon): 35 µM | TGI (A498 renal): > 100 µM | TGI (OVCAR-4 ovarian): 41.8 µM | TGI (UO-31 renal): > 72.5 µM | TGI (SK-MEL-2 melanoma): 41.4 µM | TGI (RXF 393 renal): > 59.1 µM | TGI (CAKI-1 renal): 39.7 µM | TGI (SR leukemia): > 100 µM | TGI (HOP-18 NSCLC): 56.5 µM | TGI (HL-60(TB) leukemia): > 100 µM | TGI (LOX IMVI melanoma): 57.2 µM | TGI (UACC-62 melanoma): 66.9 µM | TGI (OVCAR-8 ovarian): 45.4 µM | TGI (K-562 leukemia): 68.7 µM | TGI (MOLT-4 leukemia): > 100 µM | TGI (HCT-116 colon): > 62.8 µM | TGI (SF-539 CNS): > 67.8 µM | TGI (CCRF-CEM leukemia): 82.3 µM | TGI (SK-MEL-5 melanoma): 56.1 µM | TGI (NCI-H23 lung): > 60.3 µM | TGI (HOP-62 NSCLC): > 100 µM | TGI (UACC-257 melanoma): 63.2 µM | TGI (SK-OV-3 ovarian): > 100 µM | TGI (IGROV1 ovarian): > 62.3 µM | TGI (SW-620 colon): 47.2 µM | TGI (786-0 renal): 39.1 µM | TGI (SNB-19 CNS): > 100 µM | TGI (SK-MEL-28 melanoma): > 62.4 µM | TGI (NCI-H460 lung): > 71.2 µM | TGI (DMS 273 small cell lung): > 60.2 µM | TGI (SN12C renal): > 100 µM | TGI (NCI-H522 lung): 27.3 µM | TGI (EKVX NSCLC): > 100 µM | TGI (HCC-2998 colon): > 100 µM | TGI (TK-10 renal): > 71.1 µM | TGI (OVCAR-5 ovarian): 46.6 µM | TGI (U251 CNS): > 67.3 µM | TGI (HT29 colon): > 100 µM | TGI (COLO 205 colon): > 72.2 µM | TGI (SNB-78 CNS): > 76.6 µM | TGI (RPMI-8226 leukemia): > 100 µM | TGI (DMS 114 small cell lung): > 55.8 µM | TGI (A549 NSCLC): > 100 µM | TGI (SF-268 CNS): 56.6 µM | TGI (M19-MEL melanoma): > 57.1 µM | TGI (OVCAR-3 ovarian): 32.1 µM | TGI (HCT-15 colon): > 100 µM | TGI (MALME-3M melanoma): 37.4 µM | TGI (M14 melanoma): 38.5 µM | TGI (SF-295 CNS): > 100 µM | TGI (LXFL 529 NSCLC): 35.9 µM | TGI (KM20L2 colon): > 100 µM | TGI (HOP-92 NSCLC): > 57.3 µM | TGI (SNB-75 CNS): 44.1 µM

CC1C[C@]2(C[C@@H](C)C(=O)O2)OC2CC3(C)C4CCC5C(C)(C)OC(=O)CC[C@@]56C[C@@]46CC[C@]3(C)C12 (stereo partly drawn)
TGI (KM12 colon): > 100 µM | TGI (NCI-H226 lung): > 100 µM | TGI (ACHN renal): > 100 µM | TGI (DLD-1 colon): > 100 µM | TGI (A498 renal): > 100 µM | TGI (OVCAR-4 ovarian): > 100 µM | TGI (SK-MEL-2 melanoma): > 100 µM | TGI (RXF 393 renal): > 100 µM | TGI (CAKI-1 renal): > 100 µM | TGI (SR leukemia): > 100 µM | TGI (HOP-18 NSCLC): > 100 µM | TGI (HL-60(TB) leukemia): > 100 µM | TGI (LOX IMVI melanoma): > 100 µM | TGI (OVCAR-8 ovarian): > 100 µM | TGI (K-562 leukemia): > 100 µM | TGI (MOLT-4 leukemia): > 100 µM | TGI (HCT-116 colon): > 100 µM | TGI (SF-539 CNS): > 100 µM | TGI (CCRF-CEM leukemia): > 100 µM | TGI (SK-MEL-5 melanoma): > 100 µM | TGI (NCI-H23 lung): > 100 µM | TGI (RXF-631 renal): > 100 µM | TGI (UACC-257 melanoma): > 100 µM | TGI (IGROV1 ovarian): > 100 µM | TGI (SW-620 colon): > 100 µM | TGI (SNB-19 CNS): > 100 µM | TGI (SK-MEL-28 melanoma): > 100 µM | TGI (NCI-H460 lung): > 100 µM | TGI (DMS 273 small cell lung): > 100 µM | TGI (SN12C renal): > 100 µM | TGI (EKVX NSCLC): > 100 µM | TGI (HCC-2998 colon): > 100 µM | TGI (TK-10 renal): > 100 µM | TGI (OVCAR-5 ovarian): > 100 µM | TGI (U251 CNS): > 100 µM | TGI (HT29 colon): > 100 µM | TGI (COLO 205 colon): > 100 µM | TGI (SNB-78 CNS): > 100 µM | TGI (RPMI-8226 leukemia): > 100 µM | TGI (DMS 114 small cell lung): > 100 µM | TGI (A549 NSCLC): > 100 µM | TGI (SF-268 CNS): > 100 µM | TGI (XF 498 CNS): > 100 µM | TGI (HCT-15 colon): > 100 µM | TGI (MALME-3M melanoma): > 100 µM | TGI (M14 melanoma): > 100 µM | TGI (SF-295 CNS): > 100 µM | TGI (LXFL 529 NSCLC): > 100 µM | TGI (HOP-92 NSCLC): > 100 µM | TGI (SNB-75 CNS): > 100 µM
